# Measurements from the supplement of paper PMC10307832.
# Experiments:
# Assay in all cases: relative viability (nuclei count vs DMSO), 5 days (fraction); higher = more cells survive
# Quizartinib + Linsitinib = compound: CC(C)(C)c1cc(NC(=O)Nc2ccc(-c3cn4c(n3)sc3cc(OCCN5CCOCC5)ccc34)cc2)no1 [Quizartinib] + C[C@]1(O)C[C@@H](c2nc(-c3ccc4ccc(-c5ccccc5)nc4c3)c3c(N)nccn32)C1 [Linsitinib] (partner 1 µM)
# Outline: (§1)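 Relative viability was taken as the ratio of nuclei in treated wells to nuclei in vehicle wells. Lung cancer cell lines in 1536-well plates received compounds by pin tool one day after seeding, either one drug alone or a fixed anchor-drug dose plus five library-drug doses (not always all listed) in √10 steps. Nuclei were counted on 4× images after 5 days of treatment, and values are medians of duplicate plates.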
# Quizartinib + Bortezomib = compound: CC(C)(C)c1cc(NC(=O)Nc2ccc(-c3cn4c(n3)sc3cc(OCCN5CCOCC5)ccc34)cc2)no1 [Quizartinib] + CC(C)C[C@H](NC(=O)[C@H](Cc1ccccc1)NC(=O)c1cnccn1)B(O)O [Bortezomib] (partner 0.002 µM)
# Outline: as §1
# YM155 + Palbociclib = compound: COCC[n+]1c2c(n(Cc3cnccn3)c1C)C(=O)c1ccccc1C2=O [YM155] + CC(=O)c1c(C)c2cnc(Nc3ccc(N4CCNCC4)cn3)nc2n(C2CCCC2)c1=O [Palbociclib] (partner 0.5 µM)
# Outline: as §1
# YM155 + Dasatinib = compound: COCC[n+]1c2c(n(Cc3cnccn3)c1C)C(=O)c1ccccc1C2=O [YM155] + Cc1nc(Nc2ncc(C(=O)Nc3c(C)cccc3Cl)s2)cc(N2CCN(CCO)CC2)n1 [Dasatinib] (partner 0.075 µM)
# Outline: as §1
Cell Line,relative viability (Quizartinib + Linsitinib; first compound 0.001 µM),relative viability (Quizartinib + Linsitinib; first compound 0.003162 µM),relative viability (Quizartinib + Linsitinib; first compound 0.01 µM),relative viability (Quizartinib + Linsitinib; first compound 0.03162 µM),relative viability (Quizartinib + Linsitinib; first compound 0.1 µM),relative viability (Quizartinib + Bortezomib; first compound 0.001 µM),relative viability (Quizartinib + Bortezomib; first compound 0.003162 µM),relative viability (Quizartinib + Bortezomib; first compound 0.01 µM),relative viability (Quizartinib + Bortezomib; first compound 0.03162 µM),relative viability (Quizartinib + Bortezomib; first compound 0.1 µM),relative viability (YM155 + Palbociclib; first compound 0.002 µM),relative viability (YM155 + Palbociclib; first compound 0.006325 µM),relative viability (YM155 + Palbociclib; first compound 0.02 µM),relative viability (YM155 + Palbociclib; first compound 0.06325 µM),relative viability (YM155 + Dasatinib; first compound 0.002 µM),relative viability (YM155 + Dasatinib; first compound 0.006325 µM),relative viability (YM155 + Dasatinib; first compound 0.02 µM),relative viability (YM155 + Dasatinib; first compound 0.06325 µM)
NCI-H2405,0.85,0.883,0.927,0.909,1.09,0.689,1.01,1.01,1.01,0.984,0.515,0.508,0.424,0.269,0.191,0.22,0.206,0.21
NCI-H1666,0.771,0.753,0.868,0.631,0.865,0.738,0.753,0.823,0.511,0.813,0.616,0.701,0.651,0.611,0.812,0.791,0.799,0.826
NCI-H650,0.807,0.787,0.798,0.694,1.15,0.785,0.768,0.818,0.885,1.01,0.314,0.292,0.383,0.31,0.446,0.524,0.509,0.44
COR-L23,0.829,0.9,1.05,0.748,0.92,0.965,0.908,1.14,0.902,0.889,0.279,0.272,0.217,0.152,0.503,0.463,0.367,0.221
NCI-H1734,0.752,0.871,0.901,0.855,0.842,0.862,0.769,1.05,0.776,0.944,0.362,0.313,0.374,0.345,0.471,0.525,0.495,0.518
UMC-11,1.05,0.964,1.06,0.914,1.02,0.242,0.852,0.875,0.769,0.653,0.327,0.356,0.336,0.33,0.374,0.49,0.518,0.51
NCI-H596,1.06,0.985,1.06,1.12,1.03,1.15,0.92,1.1,1.19,1.2,,,,,0.653,0.58,0.544,0.692
